Here are results for one compound from patent publication US20230134760A1, “CAR AND NRF2 DUAL ACTIVATOR AGENTS FOR CYCLOPHOSPHAMIDE-BASED AND DOXORUBICIN-BASED TREATMENTS OF CANCER” (priority 2020, published 2023).

Test [1] relates to H9c2 cells. As to the kind of experiment: Oxidative stress imaging (DFDA) in H9c2 cells. Type of test: cell-based, rat. Particulars: H9c2, DL7076 5 μM, 2-hour pretreatment and 6-hour cotreatment with DOX. As for the experimental part:
H9c2 rat cardiomyocytes seeded at 0.8×10^5 in 24-well plates. […] Cells were washed 3× with PBS. Subsequently, 0.5 mL of WEM containing 20 μM 2'-7'-dichlorofluorescein diacetate (DFDA) was added to each well. The cells were incubated at 37° C. and 5% CO2 for 30 min. The oxidation of DFDA to the fluorescent dichlorofluorescein was viewed using fluorescence microscopy (Nikon Eclipse Ti) with a FITC filter at […] and quantified using Brightspot detection for fluorescent detection of triplicate images and normalized to the vehicle control (0.1% DMSO). Cells on coverslips from co-culture experiments were fixed using 4% paraformaldehyde and permealized using Triton-X 100. A primary antibody for mouse anti-phospho-H2AX ([…]) was incubated overnight. Goat anti-mouse IgG Fluor Alexa 488 (1:200) was incubated for 2 hrs. Phosphorylation was calculated through fluorescence intensity all normalized to the vehicle control.

Test [2] concerns Nrf2. Put plainly: Nrf2 luciferase reporter assay in HepG2 cells (ARE). Type of test: cell-based. As to conditions: HepG2, screening, FIG. 37b. As for the experimental part:
HepG2 cells were cultured in 24-well plates (1×10^5 cells/well) and transfected with either a hCAR1+A expression vector (30 ng/well), a CYP2B6-2.2k reporter (60 ng/well) reporter, and pRL-TK (10 ng/well) or a ARE expression vector using X-tremeGENE 9 DNA Transfection Reagent (Sigma-Aldrich). After an overnight transfection, cells were treated with a vehicle control (0.1% DMSO), RIF (10 μM), DL7076 (1 μM, 5 μM, and 10 μM) for 24 hours. Cell lysates were assayed for luciferase activity and normalized against the activity of the Renilla luciferase using a Dual-Luciferase Kit (Promega).
(In general: In a reporter assay the amount or activity of a reporter protein is the signal.)

For test [3], the system named is hCAR. Put plainly: Ad/EYFP-hCAR translocation assay in HPH. The format is cell-based, human. Particulars: Ad-EYFP-hCAR-infected HPH; DL7076 10 μM, PB 1 mM. As for the experimental part: HPH were seeded on collagen-coated 12-well plates. 24 hours after seeding, HPH were infected with Ad/EYFP-hCAR at a concentration of 5 μL/mL of media and incubated overnight. HPH infected cells were treated with a vehicle control (DMSO 0.01%), a positive control (1 mM PB), and compounds of interest for 8 h. Fluorescence was viewed using the YFP channel (Nikon Eclipse Ti) and quantified by identifying the number of total cells expressing EYFP-hCAR over EYFP-hCAR present in the nucleus. Representative images are shown, and quantitative data represents the mean±SD of 3 individual images for each treatment group.

Turning to `O=C(NCCN=C=S)c1c(-c2ccc3ccccc3c2)nc2sccn12` [DL7076, N-(2-Isothiocyanatoethyl)-6-(naphthalen-2-yl)imidazo[2,1-b]thiazole-5-carboxamide], the “ROS (fluorescence intensity) with cotreatment” value in test [1] is recorded as “significantly reduced ROS”. Moreover, the “Nrf2 luciferase activity (potency and efficacy)” value in test [2] was “higher potency and efficacy”. In addition, the EYFP-hCAR nuclear translocation entry in test [3] is “triggered hCAR nuclear translocation”.
